# Reference: US20150148759A1, “Pharmaceutical Patch for Transdermal Administration of Tapentadol” (Gruenenthal GmbH, priority 2012, published 2015)
# Where “and” joins values, the source holds several entries; their conditions need not be identical. Equal entries are not always repeated. Structures can show the parent of a compound that is named as a salt. Where two headings read alike, the source gives them in different places.
# What was measured:
# [1] = solubility of API and API HCl in different solvents; assay type: physicochemical
# Description: The solubility of API and API HCl in different organic solvents and aqueous solutions is tested by transferring defined volumes of the solvents into micro vials. API and API HCl, respectively, are added until saturation. The solutions are centrifuged and the supernatants analyzed by HPLC (Table 1).
# [2] = compatibility of API HCl with different adhesives; assay type: physicochemical
# Description: The compatibility of the hydrochloride salt of Tapentadol (API HCl) with different types of adhesives is tested (Table 2).
# Duro-Tak 87-900A: non-functional acrylic (no hydroxyl, no carboxyl groups), non-curing
# Duro-Tak 87-4287: hydroxyl-functionalized polyacrylate-vinylacetate copolymer, non-curing
# Duro-Tak 87-2677: carboxylate-functionalized polyacrylate-vinylacetate copolymer, self-curing
# Duro-Tak 87-6911 A: tackified styrene rubber (styrene-block-butadiene-block-styrene), not functionalized
# Bio PSA 7-4502: silicone adhesive.
# hairless mouse skin = experiment: in-vitro skin permeation from donor solution, Franz-diffusion cell; assay type: in vitro ADME
# Description: Saturated solutions of API and API HCl were prepared in a mixture of ethanol and dodecanol (95:5) and ethanol and oleic acid (85:15), respectively.
# An in-vitro permeation study was performed with the saturated solutions to show permeation of drug through mouse skin. The in-vitro experiments were conducted using a Franz-diffusion cell. The Franz-diffusion cell consists of a donor compartment and an acceptor compartment. • Skin: hairless mouse skin, female, age 6-7 weeks • Stem: Hsd: Athymic Nude-Foxn1^nu • Dermal tissue: dorsal and abdominal with all dermal layers • Breeder: Harlan Laboratories GmbH • Acceptor medium: HEPES buffer pH 7.2 • Volume acceptor: 15 mL • Volume donor: 1.0 mL • Donor solutions: • API HCl in ethanol/dodecanol (95/5) • API HCl in ethanol/oleic acid (85/15) • API in ethanol/dodecanol (95/5) • API in ethanol/oleic acid (85/15) • Permeation area: ˜1.00 cm^2 • Temperature in donor solution: 32±0.5° C. • Sampling times: 3 h, 6 h, 12 h, 18 h, 24 h • Sampling: automatic sampling system #115 • Rinsed volume: ˜7.0 mL • Sample volume: 1.0 mL • Replaced volume: 8.0 mL • Standards: • API HCl in acceptor medium • c(std A)=86.12 μg/mL • c(std B)=8.612 μg/mL • HPLC method: see above • Injection volume: variable between 3-15 μL and adjusted dilution factor
# pain = experiment: preliminary clinical trials, pain treating effect (visual analog scale); assay type: in vivo, human
# From the text: Low serum concentrations of Tapentadol suffice to show an effect in individuals that are relatively sensitive and higher serum concentrations of Tapentadol are needed to show an effect in persons that are relatively unsensitive.
# [3] = donor ethanol/dodecanol (95:5), time between sampling 6 h, 5th interval (sampling at 24 h)
# [4] = donor ethanol/dodecanol (95:5), total dissolution time 3 h
# [5] = donor ethanol/dodecanol (95:5), total dissolution time 6 h
# [6] = donor ethanol/dodecanol (95:5), total dissolution time 12 h
# [7] = donor ethanol/oleic (85:15), time between sampling 3 h, 1st interval (sampling at 3 h)
# [8] = donor ethanol/oleic (85:15), time between sampling 3 h, 2nd interval (sampling at 6 h)
# [9] = donor ethanol/oleic (85:15), time between sampling 6 h, 3rd interval (sampling at 12 h)
# [10] = donor ethanol/oleic (85:15), time between sampling 6 h, 5th interval (sampling at 24 h)
# [11] = donor ethanol/oleic (85:15), total dissolution time 3 h
# [12] = donor ethanol/oleic (85:15), total dissolution time 6 h
# [13] = donor ethanol/oleic (85:15), total dissolution time 12 h
# [14] = donor ethanol/oleic (85:15), total dissolution time 18 h
# [15] = donor ethanol/oleic (85:15), total dissolution time 24 h
# [16] = donor ethanol/oleic (85:15), total time 3 h
# [17] = donor ethanol/oleic (85:15), total time 6 h
# [18] = donor ethanol/oleic (85:15), total time 12 h
# [19] = donor ethanol/oleic (85:15), total time 18 h
# [20] = donor ethanol/oleic (85:15), total time 24 h
# [21] = donor ethanol/dodecanol (95:5), total dissolution time 18 h
# [22] = donor ethanol/dodecanol (95:5), total dissolution time 24 h
smiles,measurement,setting,value
CC[C@@H](c1cccc(O)c1)[C@@H](C)CN(C)C [API HCl],solubility,[1]; HEPES (pH = 7.2),286 mg/mL
same,solubility,[1]; acetone,0.92 mg/mL
same,solubility,[1]; aqueous solutions,excellent solubility
same,solubility,[1]; ethanol,33.1 mg/mL
same,solubility,[1]; ethylacetate,4.46 mg/mL
same,solubility,"[1]; organic solvents like ethylacetate or acetone, ethanol and n-heptane",hardly soluble
same,solubility,[1]; water (pH = 5.8),298 mg/mL
same,appearance of solution,[2]; carboxylate-functionalized DT 87-2677,yellowish solutions are clear
same,appearance of solution,[2]; hydroxyl-functionalized polymer DT 87-4287,opaque solutions which turn slightly yellow after two weeks at room temperature
same,appearance of solution,[2]; non-functionalized DT 87-900A,clear and colorless
same,appearance of solution,"[2]; silicone adhesive Bio PSA 7-4502, 2 and 5% of API HCl",clear and colorless
same,flux,hairless mouse skin; [3],810.2 μg/cm^2h and 480.5 μg/cm^2h
same,permeated amount of API or API HCl,hairless mouse skin; [4],0.8% and 0.2%
same,permeated amount of API or API HCl,hairless mouse skin; [5],2.1% and 0.7%
same,permeated amount of API or API HCl,hairless mouse skin; [6],8.0% and 2.6%
same,flux,hairless mouse skin; [7],55.4 μg/cm^2h and 63.3 μg/cm^2h
same,flux,hairless mouse skin; [8],107.6 μg/cm^2h and 142.2 μg/cm^2h
same,flux,hairless mouse skin; [9],205.0 μg/cm^2h and 234.1 μg/cm^2h
same,flux,"hairless mouse skin; donor ethanol/oleic (85:15), time between sampling 6 h, 4th interval (sampling at 18 h)",142.8 μg/cm^2h and 155.3 μg/cm^2h
same,flux,hairless mouse skin; [10],114.7 μg/cm^2h and 115.8 μg/cm^2h
same,permeated amount of API or API HCl,hairless mouse skin; [11],0.4% and 0.5%
same,total permeated amount of API or API HCl,hairless mouse skin; [11],166.2 μg/cm^2 and 189.9 μg/cm^2
same,permeated amount of API or API HCl,hairless mouse skin; [12],1.2% and 1.6%
same,total permeated amount of API or API HCl,hairless mouse skin; [12],489.0 μg/cm^2 and 616.7 μg/cm^2
same,permeated amount of API or API HCl,hairless mouse skin; [13],4.4% and 5.1%
same,total permeated amount of API or API HCl,hairless mouse skin; [13],1718.7 μg/cm^2 and 2021.1 μg/cm^2
same,permeated amount of API or API HCl,hairless mouse skin; [14],6.5% and 7.5%
same,total permeated amount of API or API HCl,hairless mouse skin; [14],2575.7 μg/cm^2 and 2953.1 μg/cm^2
same,permeated amount of API or API HCl,hairless mouse skin; [15],8.3% and 9.3%
same,total permeated amount of API or API HCl,hairless mouse skin; [15],3263.7 μg/cm^2 and 3647.7 μg/cm^2
same,concentration of API or API HCl in sample solution,hairless mouse skin; [16],10.859 µg/mL and 12.409 µg/mL
same,concentration of API or API HCl in sample solution,hairless mouse skin; [17],26.807 µg/mL and 34.414 µg/mL
same,concentration of API or API HCl in sample solution,hairless mouse skin; [18],94.462 µg/mL and 109.882 µg/mL
same,concentration of API or API HCl in sample solution,hairless mouse skin; [19],105.741 µg/mL and 118.759 µg/mL
same,concentration of API or API HCl in sample solution,hairless mouse skin; [20],100.635 µg/mL and 107.927 µg/mL
"CC[C@@H](c1cccc(O)c1)[C@@H](C)CN(C)C [Tapentadol, 3-[(1R,2R)-3-(dimethylamino)-1-ethyl-2-methylpropyl]phenol]",visual analog scale (VAS) in a population mean,pain; serum concentration about 5 ng·ml^−1,approximately −2 mm
same,visual analog scale (VAS) in a population mean,pain; serum concentration about 300 ng·ml^−1,approximately −15 mm
"CC[C@@H](c1cccc(O)c1)[C@@H](C)CN(C)C [API, 3-[(1R,2R)-3-(dimethylamino)-1-ethyl-2-methylpropyl]phenol]",solubility,[1]; HEPES (pH = 7.2),5.43 mg/mL
same,solubility,[1]; acetone,332 mg/mL
same,dissolved amounts of API,[1]; aqueous solutions,≤ 5.5 mg/mL
same,solubility,[1]; ethanol,404 mg/mL
same,solubility,[1]; ethylacetate,232 mg/mL
same,solubility,"[1]; n-heptane, organic solvent or mixture, thermodynamic from solid, n-heptane, read-out: solubility",1.27 mg/mL
same,API contents measured,[1]; organic solvents other than n-heptane,higher than 230 mg/mL
same,solubility,[1]; water (pH = 5.8),0.48 mg/mL
same,passes across the skin barrier,hairless mouse skin; compared with the hydrochloride of Tapentadol,much better
same,flux,"hairless mouse skin; donor ethanol/dodecanol (95:5), time between sampling 3 h, 1st interval (sampling at 3 h)",178.1 μg/cm^2h and 263.3 μg/cm^2h
same,flux,"hairless mouse skin; donor ethanol/dodecanol (95:5), time between sampling 3 h, 2nd interval (sampling at 6 h)",314.1 μg/cm^2h and 398.7 μg/cm^2h
same,flux,"hairless mouse skin; donor ethanol/dodecanol (95:5), time between sampling 6 h, 3rd interval (sampling at 12 h)",789.1 μg/cm^2h and 1056.3 μg/cm^2h
same,flux,"hairless mouse skin; donor ethanol/dodecanol (95:5), time between sampling 6 h, 4th interval (sampling at 18 h)",2405.6 μg/cm^2h and 2492.9 μg/cm^2h
same,flux,hairless mouse skin; [3],1028.9 μg/cm^2h and 1038.6 μg/cm^2h
same,permeated amount of API or API HCl,hairless mouse skin; [4],1.0% and 1.5%
same,total permeated amount of API or API HCl,hairless mouse skin; [4],534.4 μg/cm^2 and 789.9 μg/cm^2
same,permeated amount of API or API HCl,hairless mouse skin; [5],2.9% and 3.9%
same,total permeated amount of API or API HCl,hairless mouse skin; [5],1476.8 μg/cm^2 and 1986.1 μg/cm^2
same,permeated amount of API or API HCl,hairless mouse skin; [6],12.1% and 16.2%
same,total permeated amount of API or API HCl,hairless mouse skin; [6],6211.5 μg/cm^2 and 8324.0 μg/cm^2
same,permeated amount of API or API HCl,hairless mouse skin; [21],40.2% and 45.4%
same,total permeated amount of API or API HCl,hairless mouse skin; [21],20644.9 μg/cm^2 and 23281.6 μg/cm^2
same,permeated amount of API or API HCl,hairless mouse skin; [22],52.3% and 57.5%
same,total permeated amount of API or API HCl,hairless mouse skin; [22],26818.4 μg/cm^2 and 29513.4 μg/cm^2
same,concentration of API or API HCl in sample solution,"hairless mouse skin; donor ethanol/dodecanol (95:5), total time 3 h",34.914 µg/mL and 51.610 µg/mL
same,concentration of API or API HCl in sample solution,"hairless mouse skin; donor ethanol/dodecanol (95:5), total time 6 h",79.955 µg/mL and 105.327 µg/mL
same,concentration of API or API HCl in sample solution,"hairless mouse skin; donor ethanol/dodecanol (95:5), total time 12 h",351.444 µg/mL and 469.548 µg/mL
same,concentration of API or API HCl in sample solution,"hairless mouse skin; donor ethanol/dodecanol (95:5), total time 18 h",1128.078 µg/mL and 1224.529 µg/mL
same,concentration of API or API HCl in sample solution,"hairless mouse skin; donor ethanol/dodecanol (95:5), total time 24 h",997.460 µg/mL and 1052.063 µg/mL
same,flux,hairless mouse skin; [7],273.5 μg/cm^2h and 441.9 μg/cm^2h
same,flux,hairless mouse skin; [8],1279.0 μg/cm^2h and 1897.8 μg/cm^2h
same,flux,hairless mouse skin; [9],458.8 μg/cm^2h and 247.0 μg/cm^2h
same,flux,hairless mouse skin; [10],572.1 μg/cm^2h and 382.5 μg/cm^2h
same,permeated amount of API or API HCl,hairless mouse skin; [11],1.7% and 2.7%
same,total permeated amount of API or API HCl,hairless mouse skin; [11],820.5 μg/cm^2 and 1325.6 μg/cm^2
same,permeated amount of API or API HCl,hairless mouse skin; [12],9.5% and 14.3%
same,total permeated amount of API or API HCl,hairless mouse skin; [12],4657.4 μg/cm^2 and 7019.0 μg/cm^2
same,permeated amount of API or API HCl,hairless mouse skin; [13],15.1% and 17.3%
same,total permeated amount of API or API HCl,hairless mouse skin; [13],7410.5 μg/cm^2 and 8500.8 μg/cm^2
same,permeated amount of API or API HCl,hairless mouse skin; [14],17.9% and 26.6%
same,total permeated amount of API or API HCl,hairless mouse skin; [14],8799.1 μg/cm^2 and 13084.6 μg/cm^2
same,permeated amount of API or API HCl,hairless mouse skin; [15],24.9% and 31.3%
same,total permeated amount of API or API HCl,hairless mouse skin; [15],12231.6 μg/cm^2 and 15379.8 μg/cm^2
same,concentration of API or API HCl in sample solution,hairless mouse skin; [16],53.604 µg/mL and 86.606 µg/mL
same,concentration of API or API HCl in sample solution,hairless mouse skin; [17],278.914 µg/mL and 417.581 µg/mL
same,concentration of API or API HCl in sample solution,hairless mouse skin; [18],326.763 µg/mL and 316.739 µg/mL
same,concentration of API or API HCl in sample solution,hairless mouse skin; [19],262.813 µg/mL and 466.288 µg/mL
same,concentration of API or API HCl in sample solution,hairless mouse skin; [20],362.673 µg/mL and 395.534 µg/mL
